# Assay results taken from patent publication US20250057844A1, “METHODS OF TREATING NEOPLASTIC DISEASES” (SILLAJEN, INC., priority 2021, published 2025).
# “Also recorded” adds a separate entry of the source. Read-outs that look alike come from different tables or passages of the source.
# What was measured:
# tumor-derived TTK = target: T1, tumor-derived TTK (Homo sapiens, UniProt P33981); assay: Tumor TTK target occupancy in MDA-MB-231 xenograft-bearing mice; type: in vivo
# T1 construct: TTK target occupancy was also measured in tumors derived from MDA-MB-231 xenograft-bearing mice; from tissue; host or cells: MDA-MB-231 xenograft tumours grown in mice
# T1 sequence (P33981 1-857): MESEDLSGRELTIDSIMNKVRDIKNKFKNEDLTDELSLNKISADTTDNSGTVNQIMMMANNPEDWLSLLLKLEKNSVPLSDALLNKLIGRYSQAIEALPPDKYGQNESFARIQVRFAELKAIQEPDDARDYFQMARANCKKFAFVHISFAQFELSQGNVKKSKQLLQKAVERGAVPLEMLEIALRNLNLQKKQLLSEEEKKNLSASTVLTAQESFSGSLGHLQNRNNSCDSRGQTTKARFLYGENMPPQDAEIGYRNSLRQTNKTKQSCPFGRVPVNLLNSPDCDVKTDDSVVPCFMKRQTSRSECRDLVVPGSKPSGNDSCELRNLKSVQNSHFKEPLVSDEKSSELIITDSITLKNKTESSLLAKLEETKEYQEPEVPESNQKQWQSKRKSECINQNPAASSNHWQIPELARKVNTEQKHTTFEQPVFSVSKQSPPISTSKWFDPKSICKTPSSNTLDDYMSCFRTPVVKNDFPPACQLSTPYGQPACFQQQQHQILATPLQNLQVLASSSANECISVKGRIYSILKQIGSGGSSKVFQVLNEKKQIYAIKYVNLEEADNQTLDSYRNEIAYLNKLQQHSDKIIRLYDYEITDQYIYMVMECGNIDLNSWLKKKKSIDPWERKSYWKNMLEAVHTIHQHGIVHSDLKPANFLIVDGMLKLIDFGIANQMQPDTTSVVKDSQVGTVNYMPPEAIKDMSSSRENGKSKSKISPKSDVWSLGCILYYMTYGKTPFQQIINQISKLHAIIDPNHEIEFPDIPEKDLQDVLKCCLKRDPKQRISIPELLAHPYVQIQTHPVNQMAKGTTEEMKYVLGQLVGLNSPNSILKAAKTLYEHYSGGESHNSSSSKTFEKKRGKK
# Protocol: Prolonged TTK target occupancy was also measured in tumors derived from MDA-MB-231 xenograft-bearing mice treated with intermittent i.v. dosing regimen of compound of formula (I). […]
# MDA-MB-231 tumor cells = assay: MDA-MB-231 TNBC xenograft study
# Protocol: Female NCr nu/nu nude mice (CharlesRiver laboratories) of 8-12 weeks of age were subcutaneously (s.c.) inoculated in the flank with 5×10^6 MDA-MB-231 tumor cells. Randomization into treatment groups (8 mice per group) was made when the mean tumor size was 100-150 mm3.
# Body weights and tumor volumes were determined at least twice per week by measuring two dimensions with calipers and applying the formula “V=(L×W2)/2”, where V is the tumor volume, and L and W are the tumor length and width respectively. […] Mice were also culled if the BWL was determined to be >15% for 3 consecutive days. Any mice with >10% BWL received a dosing holiday until the BWL returned to <10%. All animal protocols were reviewed and approved by the relevant local committees in USA (IACUC) where the studies were performed.
# [1] = First PK study: single oral dose, two formulations; type: in vivo, female Swiss Albino mice; details: for Tmax / bioavailability / AUC(0-inf) / AUC(0-t) / Cmax / half-life: Swiss Albino, mouse, plasma; for bioavailability: based on i.v. exposure; for AUC(0-t): AUC0-24 h; for Cmax: mean (SD); for half-life: read-out: Apparent T1/2 (converted)
# Protocol: Plasma samples were collected on day 1 for Groups 1 to 6. Formulation 1 consisted of DMSO, cremophor EL, and 5% mannitol in water (10/10/80; v/v/v). Formulation 2 consisted of ethanol, PEG 400, and citric acid 20 mM (10/10/80; v/v/v). […] In each of the three studies blood was collected via the sephanous vein into K2-EDTA tubes kept on ice until centrifugation at 4° C. Plasma was stored at ap-proximately-80° C. […] PK parameters were calculated using Phoenix® WinNonLin 6.4. PK analysis was based on sparse sampling.
# [2] = Maximum tolerated dose (MTD) in mice; details: mouse, in vivo
# [3] = female, po, 5 mg/kg, single oral 5 mg/kg, Formulation 1, female mice
# [4] = female, po, 5 mg/kg, single oral 5 mg/kg, Formulation 2, female mice
# [5] = female, po, 7.5 mg/kg, single oral 7.5 mg/kg, Formulation 1, female mice
# [6] = female, po, 7.5 mg/kg, single oral 7.5 mg/kg, Formulation 2, female mice
# [7] = female, po, 10 mg/kg, single oral 10 mg/kg, Formulation 1, female mice
# [8] = female, po, 10 mg/kg, single oral 10 mg/kg, Formulation 2, female mice
# [9] = single oral 5 mg/kg, Formulation 1, female mice
# [10] = single oral 5 mg/kg, Formulation 2, female mice
# [11] = single oral 7.5 mg/kg, Formulation 1, female mice
# [12] = single oral 7.5 mg/kg, Formulation 2, female mice
# [13] = single oral 10 mg/kg, Formulation 1, female mice
# [14] = single oral 10 mg/kg, Formulation 2, female mice
smiles,measurement,setting,value
COc1cc(N2CCNCC2)ccc1Nc1ncc2c(n1)-n1ccc(C(=O)Nc3c(C)cccc3C)c1CC2 [compound of formula (I)],time TTK completely occupied after last dose,"tumor-derived TTK; IV twice-weekly, MTD dose, MDA-MB-231 tumors",at least 72 h
same,time tumor-derived TTK fully drug-occupied after last administration,"tumor-derived TTK; IV weekly MTD dosing, repeat experiment",up to 6 days
same,Tumor-free (%) (cured based on pathological analysis),"MDA-MB-231 tumor cells; 25 mg/kg, QW, IV",25%
same,Tumor-free (pathological evaluation),"MDA-MB-231 tumor cells; 25 mg/kg, QW, IV, mouse 2 and 3",no detectable residual tumor cells; also recorded: no neoplastic epithelial cells (residual tumor cells) were observed
same,Tumor-free (pathological evaluation),"MDA-MB-231 tumor cells; 25 mg/kg, QW, IV, mouse 2 and 3, listed as Formula (I)",Yes
same,Tumor-free (pathological evaluation),"MDA-MB-231 tumor cells; 25 mg/kg, QW, IV, mouse 8",two small aggregates of neoplastic cells at the inoculation site; also recorded: still displayed some neoplastic tissue
same,Tumor-free (pathological evaluation),"MDA-MB-231 tumor cells; 25 mg/kg, QW, IV, mouse 8, listed as Formula (I)",No
same,local finding leading to treatment stop at Day-30,"MDA-MB-231 tumor cells; 2QW MTD i.v. dosing, repeated IV-injections",tail vein irritations (scabbing)
same,efficacy of 0.5×MTD i.v. dosing versus MTD daily oral dosing,MDA-MB-231 tumor cells; FIG. 3 and FIG. 4,equipotent efficacy
same,animals with no measurable/palpable tumor mass,"MDA-MB-231 tumor cells; QW MTD i.v. until Day-98, observed Day-80 to Day-125, two of eight animals (FIG. 3 study)",25%
same,residual tumor cells by H&E (two animals without palpable tumor),"MDA-MB-231 tumor cells; QW MTD i.v., FIG. 3 study, Day-125",tumor-free
same,efficacy of MTD i.v. dosing versus MTD oral daily treatment,"MDA-MB-231 tumor cells; QW and 2QW i.v., FIG. 3 and FIG. 4",far superior
same,drug-related animal deaths,"MDA-MB-231 tumor cells; all i.v. QW and 2QW treatments, FIG. 1",no drug-related animal deaths recorded
same,body weight loss,"MDA-MB-231 tumor cells; dosing at the MTD, i.v., FIG. 1",≤ 10%
same,anti-tumor effect,"MDA-MB-231 tumor cells; i.v. MTD-dosing (QW 25 mg/kg, 2QW 12.5 mg/kg), FIG. 1",tumor stasis and tumor regressions were observed
same,tolerability,"MDA-MB-231 tumor cells; mouse, in vivo","relatively well tolerated, with no animal deaths"
same,tumor volume of three of eight tumors after treatment cessation,"MDA-MB-231 tumor cells; weekly i.v. MTD group, 20 days observation after cessation on D100",≤ 6 mm3
same,Tmax,"[1]; single oral 5 mg/kg, Formulation 1, female mice, read-out: Tmax",4 h
same,Tmax,"[1]; single oral 7.5 mg/kg, Formulation 1, female mice, read-out: Tmax",4 h
same,Tmax,"[1]; single oral 10 mg/kg, Formulation 1, female mice, read-out: Tmax",4 h
same,bioavailability,"[1]; female, oral, single dose administration, read-out: oral bioavailability",76 to 96%
same,AUC(0-inf),[1]; [3],1100 ng·h/mL
same,AUC(0-t),[1]; [3],1080 ng·h/mL
same,bioavailability,"[1]; female, po, 5 mg/kg, single oral 5 mg/kg, Formulation 1, female mice, read-out: F (%)",76%
same,Cmax,[1]; [3],108 ng/mL
same,half-life,[1]; [3],3.27 h
same,AUC(0-inf),[1]; [4],1130 ng·h/mL
same,AUC(0-t),[1]; [4],1120 ng·h/mL
same,bioavailability,"[1]; female, po, 5 mg/kg, single oral 5 mg/kg, Formulation 2, female mice, read-out: F (%)",78%
same,Cmax,[1]; [4],103 ng/mL
same,half-life,[1]; [4],3.29 h
same,AUC(0-inf),[1]; [5],1660 ng·h/mL
same,AUC(0-t),[1]; [5],1650 ng·h/mL
same,bioavailability,"[1]; female, po, 7.5 mg/kg, single oral 7.5 mg/kg, Formulation 1, female mice, read-out: F (%)",77%
same,Cmax,[1]; [5],164 ng/mL
same,half-life,[1]; [5],3.23 h
same,AUC(0-inf),[1]; [6],1910 ng·h/mL
same,AUC(0-t),[1]; [6],1880 ng·h/mL
same,bioavailability,"[1]; female, po, 7.5 mg/kg, single oral 7.5 mg/kg, Formulation 2, female mice, read-out: F (%)",88%
same,Cmax,[1]; [6],172 ng/mL
same,half-life,[1]; [6],3.51 h
same,AUC(0-inf),[1]; [7],2480 ng·h/mL
same,AUC(0-t),[1]; [7],2430 ng·h/mL
same,bioavailability,"[1]; female, po, 10 mg/kg, single oral 10 mg/kg, Formulation 1, female mice, read-out: F (%)",86%
same,Cmax,[1]; [7],210 ng/mL
same,half-life,[1]; [7],3.66 h
same,AUC(0-inf),[1]; [8],2770 ng·h/mL
same,AUC(0-t),[1]; [8],2730 ng·h/mL
same,bioavailability,"[1]; female, po, 10 mg/kg, single oral 10 mg/kg, Formulation 2, female mice, read-out: F (%)",96%
same,Cmax,[1]; [8],276 ng/mL
same,half-life,[1]; [8],3.43 h
same,Tmax,"[1]; female, single oral administration, 5-10 mg/kg, both formulations, read-out: median Tmax",4 h
same,% extrapolated,[1]; [9],1.11%
same,AUCinf/Dose,[1]; [9],220 ng·h/mL/mg/kg
same,AUClast/Dose,[1]; [9],216 (h*ng/mL)/(mg/kg)
same,Cmax/Dose,[1]; [9],21.6 (ng/mL)/(mg/kg)
same,% extrapolated,[1]; [10],1.14%
same,AUCinf/Dose,[1]; [10],226 ng·h/mL/mg/kg
same,AUClast/Dose,[1]; [10],224 (h*ng/mL)/(mg/kg)
same,Cmax/Dose,[1]; [10],20.6 (ng/mL)/(mg/kg)
same,% extrapolated,[1]; [11],1.06%
same,AUCinf/Dose,[1]; [11],221 ng·h/mL/mg/kg
same,AUClast/Dose,[1]; [11],220 (h*ng/mL)/(mg/kg)
same,Cmax/Dose,[1]; [11],21.9 (ng/mL)/(mg/kg)
same,% extrapolated,[1]; [12],1.67%
same,AUCinf/Dose,[1]; [12],255 ng·h/mL/mg/kg
same,AUClast/Dose,[1]; [12],251 (h*ng/mL)/(mg/kg)
same,Cmax/Dose,[1]; [12],22.9 (ng/mL)/(mg/kg)
same,% extrapolated,[1]; [13],1.9%
same,AUCinf/Dose,[1]; [13],248 ng·h/mL/mg/kg
same,AUClast/Dose,[1]; [13],243 (h*ng/mL)/(mg/kg)
same,Cmax/Dose,[1]; [13],21 (ng/mL)/(mg/kg)
same,% extrapolated,[1]; [14],1.47%
same,AUCinf/Dose,[1]; [14],277 ng·h/mL/mg/kg
same,AUClast/Dose,[1]; [14],273 (h*ng/mL)/(mg/kg)
same,Cmax/Dose,[1]; [14],27.6 (ng/mL)/(mg/kg)
same,MTD,"[2]; iv, 2QW",12.5 mg/kg
same,MTD,"[2]; iv, QW",25 mg/kg
same,MTD,"[2]; po, orally daily",7.5 mg/kg
